# Legend:
# Format in all cases: biochemical, Nicotiana tabacum
# [1] = test system: AS α subunit of WT tobacco; assay: AS α subunit activity, inhibition by Trp, wild type (100 mM NH4Cl as amino donor); conditions: 10 μm Trp, Example 6
# Procedure: (§1) Approximately 2 g of leaves was homogenized with 1.5 volume of ice-cold extraction buffer as described in Bernasconi et al., (1994). The homogenate was centrifuged at 30,000 g at 4° C. for 10 min. The supernatant was desalted using a Econo-Pac 10 DG column (Bio-Rad, Hercules, Calif.). Protein concentration was determined using a protein dye-binding assay kit (Bio-Rad, Hercules, Calif.). The supernatant was combined with two volumes of assay buffer as described previously (Bernasconi et al., 1994) but without NH4Cl. AS enzyme activity was measured as the conversion rate of chorismate to anthranilate as described previously (Song et al., 1998). Either 100 mM NH4Cl or 10 mM glutamine was added to the assay mixture to determine α-subunit activity or AS holoenzyme activity respectively and Trp at different concentrations. Duplicate extracts of each line were analyzed.
# [2] = test system: AS holoenzyme of ASA2 transgenic tobacco lines; assay: AS holoenzyme activity, inhibition by Trp, ASA2 transgenic lines (10 mM Gln); conditions: 300 μM Trp, pC2ASA2 lines
# Procedure: as §1
# [3] = test system: AS α subunit (feedback insensitive ASA2) of transgenic tobacco lines; assay: AS α subunit activity, inhibition by Trp, ASA2 transgenic lines (100 mM NH4Cl); conditions: 300 μM Trp, pC2ASA2 lines
# Procedure: as §1
# [4] = test system: anthranilate synthase (AS) holoenzyme of WT tobacco; assay: AS holoenzyme activity, inhibition by Trp, wild type (10 mM Gln as amino donor)
# Procedure: as §1
smiles,measurement,setting,value
"N[C@@H](Cc1c[nH]c2ccccc12)C(=O)O [Trp, tryptophan]",WT AS α subunit activity,[1],almost completely inhibited
same,holoenzyme activity retained by line #6 and line #7,[2],about 40%
same,α-subunit activity retained by line #6 and line #7,[3],about 40%
same,WT relative holoenzyme activity,"[4]; 300 μM Trp, Example 9",almost completely inhibited
same,WT AS holoenzyme activity,"[4]; 10 μm Trp, Example 6",almost completely inhibited

# From patent US7847152B2, “Use of tryptophan indole and anthranilate analogs as plant transformation selection agents” (The Board of Trustees of the University of Illinois, priority 2006, dated 2010)
